Experimental data from ChEMBL document CHEMBL4359928, “Scaffold Morphing To Identify Novel DprE1 Inhibitors with Antimycobacterial Activity” (ACS Med Chem Lett, 2019).
Converted amounts (≈) assume the structure as drawn.

Experiments:
Type in all cases: functional
[1] = system: Mycobacterium tuberculosis; test: Antimycobacterial activity against Mycobacterium tuberculosis H37Rv overexpressing DprE1 assessed as reduction in bacterial cell growth
[2] = system: Mycobacterium tuberculosis; test: Antimycobacterial activity against BTZ043-resistant Mycobacterium tuberculosis H37Rv harbouring DprE1 C387G mutant assessed as reduction in bacterial cell growth
[3] = system: Mycobacterium tuberculosis; test: Antimycobacterial activity against 1,4-azaindole resistant Mycobacterium tuberculosis H37Rv harbouring DprE1 Y314H mutant assessed as reduction in bacterial cell growth
[4] = system: Mycobacterium tuberculosis; test: Antimycobacterial activity against Mycobacterium tuberculosis H37Rv harbouring DprE1 Y314S mutant assessed as reduction in bacterial cell growth
[5] = system: Mycobacterium tuberculosis; test: Antimycobacterial activity against BTZ043-resistant Mycobacterium tuberculosis H37Rv harbouring DprE1 C387S mutant assessed as reduction in bacterial cell growth
[6] = system: Mycobacterium tuberculosis; test: Ratio of MIC for Mycobacterium tuberculosis H37Rv overexpressing DprE1 to MIC for wild type Mycobacterium tuberculosis H37Rv
[7] = system: Mycobacterium tuberculosis; test: Ratio of MIC for 1,4 azaindole-resistant Mycobacterium tuberculosis H37Rv harboring DprE1 Y314H mutant to MIC for wild type Mycobacterium tuberculosis H37Rv
[8] = Mycobacterium tuberculosis, H37Rv, read-out: MIC

SMILES	MIC [1, 8]	MIC [2]	MIC [3]	MIC [4]	MIC [5]	Ratio [6]	Ratio [7]	MIC [1]
COc1ncnc(Cn2cnc3c(C(=O)NCCF)cccc32)c1C	25 to 50 µM (≈ 8.58 to 17.2 µg/mL)	0.78 µM (≈ 0.268 µg/mL)	25 to 50 µM	25 µM (≈ 8.58 µg/mL)	0.78 µM (≈ 0.268 µg/mL)	20	20	
C[C@H]1COC2(CCN(c3nc(=O)c4cc(C(F)(F)F)cc([N+](=O)[O-])c4s3)CC2)O1 [BTZ-043]		25 µM (≈ 10.8 µg/mL)	0.003 µM (≈ 0.00129 µg/mL)	0.006 µM (≈ 0.00259 µg/mL)	25 µM (≈ 10.8 µg/mL)			12.5 µM (≈ 5.39 µg/mL)
NNC(=O)c1ccncc1 [ISONIAZID]	0.22 µM (≈ 0.0302 µg/mL)	0.44 µM (≈ 0.0603 µg/mL)	0.44 µM (≈ 0.0603 µg/mL)	0.22 µM (≈ 0.0302 µg/mL)	0.44 µM (≈ 0.0603 µg/mL)			
CO[C@H]1/C=C/O[C@@]2(C)Oc3c(C)c(O)c4c(O)c(c(/C=N/N5CCN(C)CC5)c(O)c4c3C2=O)NC(=O)/C(C)=C\C=C\[C@H](C)[C@H](O)[C@@H](C)[C@@H](O)[C@@H](C)[C@H](OC(C)=O)[C@@H]1C [RIFAMPIN]	0.005 µM (≈ 0.00411 µg/mL)	0.005 µM (≈ 0.00411 µg/mL)			0.005 µM (≈ 0.00411 µg/mL)			
